{
  "source": "patent US8133709B2",
  "about": "“Target sequences for synthetic molecules” (Life Technologies Corporation, priority 2003, dated 2012)",
  "key": {"[1]": {"biological_target": "T1, ACP-CCPGCC (tetracysteine version of Acyl Carrier protein) (Escherichia coli, UniProt P0A6A8)", "T1 construct": "made in house; host or cells: Cell-free: Expressway in vitro protein synthesis kit (S30 E. coli extract)", "T1 sequence (P0A6A8 with tags, fused parts or gaps)": "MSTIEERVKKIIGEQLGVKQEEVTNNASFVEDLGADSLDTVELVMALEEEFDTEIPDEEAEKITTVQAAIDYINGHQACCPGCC", "test": "FlAsH-EDT2 labeling of in vitro synthesised protein, SDS-PAGE, UV light box", "format": "binding", "details": "10 μM in LDS sample buffer, 70° C. 10 minutes; control; FIG. 14", "method": "In vitro protein synthesis was carried out using the Expressway™ in vitro protein synthesis kit (Invitrogen, Carlsbad, Calif., Catalog #K9600-02). Following the manufacture's protocol 1 μg of AcpS vector DNA was added to a total volume of 50 μL of S30 E. coli extract and reaction buffer. As a control, a tetracysteine (CCPGCC) (SEQ. ID NO: 53) version of Acyl Carrier protein (ACP) (SEQ. ID NO: 7) was also expressed via the Expressway™ kit. The reaction was placed at 37° C. with 225 rpm shaking for two hours. After incubation 5 μL of RNase A was added to the reaction, after which an additional 15 minute incubation at 37° C. was performed. Protein from the in vitro protein synthesis reaction was prepared for SDS-PAGE analysis through an acetone precipitation procedure. 5 μl of reaction was added to 20 μL of 100% acetone. After mixing well the acetone solution was centrifuged for 5 minutes at room temperature in a microcentrifuge at 12,000 rpm. The supernatant was removed and the pellet was allowed to dry for 5 minutes. The pellet was resuspended in a 50 μL volume of LDS sample buffer (Invitrogen, Carlsbad, Calif., Catalog #NP0007) containing 10 μM FlAsH-EDT2. The samples were heated to 70° C. for 10 minutes and 10 μL of the samples were then loaded onto a 4-12% NUPAGE® pre-cast gel (Invitrogen, Carlsbad, Calif.) using MES running buffer. […]"}, "ACP": {"biological_target": "T2, ACP (Escherichia coli, UniProt P0A6A8)", "T2 construct": "inferred for this product (C); purchased Invitrogen, Madison, Wis; P3080", "T2 sequence (P0A6A8 with tags, fused parts or gaps)": "as above", "test": "Specificity: labeling of a mixture of purified proteins, SDS-PAGE, laser gel scanner", "format": "binding", "details": "10 μM in SDS-PAGE sample buffer; ACP:SlyD approximately 2:1; FIG. 17", "method": "ACP (Invitrogen, Madison, Wis., Catalog #P3080) was mixed at approximately 2:1 molar ratio with SlyD-His tag. The proteins were put in SDS-PAGE sample buffer supplemented with 10 μM FlAsH-EDT2, Cy3-EDT2, or Cy5-EDT2 and electrophoresed at 150 volts on a 4-20% Tris-glycine pre-cast Novex gel (Invitrogen, Carlsbad, Calif.). Immediately following electrophoresis the gel was imaged on a Fuji Film FLA 5000 laser gel scanner. […] Therefore, the SlyD tetracysteine sequence (SEQ. ID NO: 5) uniquely binds to biarsenical molecules and not to […]."}, "SlyD-trunc171": {"biological_target": "T3, SlyD-trunc171 (Escherichia coli, UniProt P0A9K9)", "T3 construct": "a hexahistidine tagged version of SlyD truncated after position 171 (SlyD-trunc171); made in house; host or cells: Cell-free: Expressway in vitro protein synthesis kit (S30 E. coli extract)", "T3 sequence (P0A9K9 with tags, fused parts or gaps)": "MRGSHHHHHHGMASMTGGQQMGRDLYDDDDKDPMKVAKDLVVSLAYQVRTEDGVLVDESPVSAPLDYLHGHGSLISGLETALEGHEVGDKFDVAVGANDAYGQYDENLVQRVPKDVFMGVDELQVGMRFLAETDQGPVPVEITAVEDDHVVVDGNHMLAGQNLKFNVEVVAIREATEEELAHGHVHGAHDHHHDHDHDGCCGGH", "test": "Binding mode: FlAsH-EDT2 labeling of in vitro synthesised SlyD versions, SDS-PAGE", "details": "10 μM in LDS sample buffer; FIG. 15", "method": "(§1) The mode of binding of a biarsenical to a target sequence was examined using the Expressway™ in vitro protein synthesis kit (Invitrogen, Carlsbad, Calif.) and SDS-PAGE. Following the manufacture's protocol 1 μg of SlyD+His tag (SEQ. ID NO: 8), SlyD-C167A/C168A (SEQ. ID NO: 9), and SlyD-trunc171 (SEQ. ID NO: 10) vector DNAs were added to a total volume of 50 μL of S30 E. coli extract and reaction buffer. The reaction was placed at 37° C. with 225 rpm shaking for two hours. After incubation 5 μL of RNase A was added to the reaction, after which an additional 15 minute incubation at 37° C. was performed. Protein from the in vitro protein synthesis reaction was prepared for SDS-PAGE analysis through an acetone precipitation procedure. 5 μl of reaction was added to 20 μL of 100% acetone. After mixing well the acetone solution was centrifuged for 5 minutes at room temperature in a microcentrifuge at 12,000 rpm. The supernatant was removed and the pellet was allowed to dry for 5 minutes. The pellet was resuspended in a 50 μL volume of LDS sample buffer (Invitrogen, Carlsbad, Calif.) containing 10 μM FlAsH-EDT2. The samples were heated to 70° C. for 10 minutes and 10 μL of the samples were then loaded onto a 4-12% NuPAGE® pre-cast gel (Invitrogen, Carlsbad, Calif., Catalog #NP0239 Box) using MES running buffer. The gel was electrophoresed at 200 volts for about 30 minutes. Immediately following electrophoresis the gel was removed from the cassette and visualized on a UV light box."}, "SlyD+His tag": {"biological_target": "T4, SlyD+His tag (Escherichia coli, UniProt P0A9K9)", "T4 construct": "Lane 1 is full length, hexahistidine tagged SlyD (SlyD+His tag); made in house; host or cells: Cell-free: Expressway in vitro protein synthesis kit (S30 E. coli extract)", "T4 sequence (P0A9K9 with tags, fused parts or gaps)": "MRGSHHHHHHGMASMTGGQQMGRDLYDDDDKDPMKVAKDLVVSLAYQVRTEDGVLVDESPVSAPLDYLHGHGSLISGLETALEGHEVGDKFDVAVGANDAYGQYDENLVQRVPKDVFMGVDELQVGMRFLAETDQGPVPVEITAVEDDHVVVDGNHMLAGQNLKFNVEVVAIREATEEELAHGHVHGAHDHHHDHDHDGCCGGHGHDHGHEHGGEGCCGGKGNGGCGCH", "test": "Binding mode: FlAsH-EDT2 labeling of in vitro synthesised SlyD versions, SDS-PAGE", "details": "10 μM in LDS sample buffer; FIG. 15", "method": "as §1"}, "SlyD-C167A/C168A": {"biological_target": "T5, SlyD-C167A/C168A (Escherichia coli, UniProt P0A9K9, C167A/C168A)", "T5 construct": "Lane 2 is full length, hexahistidine tagged SlyD with two point mutations; made in house; host or cells: Cell-free: Expressway in vitro protein synthesis kit (S30 E. coli extract)", "T5 sequence (P0A9K9 with tags, fused parts or gaps C167A/C168A)": "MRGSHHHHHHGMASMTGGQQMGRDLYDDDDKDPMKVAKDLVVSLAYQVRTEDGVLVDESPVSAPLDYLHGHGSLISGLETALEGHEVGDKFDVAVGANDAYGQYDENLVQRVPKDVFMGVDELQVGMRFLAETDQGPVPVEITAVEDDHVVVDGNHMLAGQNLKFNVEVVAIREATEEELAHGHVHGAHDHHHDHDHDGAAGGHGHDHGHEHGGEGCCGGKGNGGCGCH", "test": "Binding mode: FlAsH-EDT2 labeling of in vitro synthesised SlyD versions, SDS-PAGE", "details": "10 μM in LDS sample buffer; FIG. 15", "method": "as §1"}, "[2]": {"biological_target": "T6, AcpS+4Cys (SlyD tetracysteine sequence […] on AcpS) (Escherichia coli, UniProt P24224)", "T6 construct": "made in house; host or cells: Cell-free: Expressway in vitro protein synthesis kit, S30 E. coli extract, from a pRSET vector", "T6 sequence (P24224 with tags, fused parts or gaps)": "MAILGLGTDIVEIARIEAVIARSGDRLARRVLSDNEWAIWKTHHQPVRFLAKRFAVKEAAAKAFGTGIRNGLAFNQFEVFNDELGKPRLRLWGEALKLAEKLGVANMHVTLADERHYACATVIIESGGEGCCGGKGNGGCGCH", "test": "FlAsH-EDT2 labeling of in vitro synthesised protein, SDS-PAGE, UV light box", "format": "binding", "details": "10 μM in LDS sample buffer, 70° C. 10 minutes; compared with CCPGCC; FIG. 14", "source_text": "A target sequence that includes the SlyD (SEQ. ID NO: 4) tetracysteine sequence, CCGGKGNGGCGC (SEQ. ID NO: 5) was introduced onto the Carboxy-terminus of Acyl Carrier Protein S (AcpS). Since AcpS has only one endogenous cysteine amino acid and since AcpS is a robust stable protein, a substitution at the Carboxy-terminus could be made without altering the solubility of the properly folded protein. […] ID NO: 6. The mutated AcpS is referred to as AcpS+4Cys. The substitutions were generated using polymerase chain reaction with primers specific for the encoding the expression of the desired tetracysteine sequence. The nucleic acid sequence encoding the cysteine substituted AcpS was inserted into the pRSET vector (Invitrogen, Carlsbad, Calif., Catalog #V351-20) using restriction sites inherent to the vector's multiple cloning site. After amplification in DH5 bacteria, the vector was expressed using in vitro transcription and translation. See also, U.S. Provisional Patent Application No. 60/614,590, filed Oct. 1, 2004 and U.S. patent application Ser. No. 10/954,951, filed Oct. 1, 2004, incorporated by reference herein in their entireties, disclosing additional compositions and methods for in vitro transcription and translation.\nIn vitro protein synthesis was carried out using the Expressway™ in vitro protein synthesis kit (Invitrogen, Carlsbad, Calif., Catalog #K9600-02). […]"}, "[3]": {"biological_target": "T7, SlyD+His tag (SlyD tetracysteine sequence) (Escherichia coli, UniProt P0A9K9)", "T7 construct": "made in house; host or cells: E. coli BL21 (DE3), pRSET vector, Ni-NTA purified", "T7 sequence (P0A9K9 with tags, fused parts or gaps)": "as the sequence (P0A9K9 with tags, fused parts or gaps C167A/C168A) above, with A200C, A201C counted along it", "test": "Specificity: labeling of a mixture of purified proteins, SDS-PAGE, laser gel scanner", "format": "binding", "details": "10 μM in SDS-PAGE sample buffer; ACP:SlyD approximately 2:1; FIG. 17", "method": "The native SlyD sequence (SEQ. ID NO: 4) was cloned into the pRSET vector (Invitrogen, Carlsbad, Calif.) using standard molecular biology techniques. Purified protein was produced from this vector by first transforming BL21 (DE3) cells (Invitrogen, Carlsbad, Calif., Catalog #C6010-03) and plated on LB-ampicillin plates. A single colony was selected and grown in one liter of liquid LB broth to a density of 1 O.D. and 1 mM IPTG was added to induce protein expression. After three hours of protein induction the culture was harvested by centrifugation at 10,000×g for 5 minutes at 4° C. The cell pellet was resuspended in 50 mM HEPES (pH 7.5), 140 mM NaCl and sonicated on ice for a total of two minutes. The E. coli lysate was separated by centrifugation at 25,000×g for 20 minutes at 4° C. The supernatant contained the soluble protein and consequently it was loaded onto a Ni^2+-NTA column equilibrated in 50 mM HEPES (pH 7.5), 140 mM NaCl buffer. The column was washed with three column volumes of 50 mM HEPES (pH 7.5), 140 mM NaCl and non-specific binding proteins were removed by washing with 50 mM HEPES (pH 7.5), 140 mM NaCl, and 20 mM Imidazole. To elute the desired hexahistidine tagged SlyD, a solution of 50 mM HEPES (pH 7.5), 140 mM NaCl, and 250 mM Imidazole was added to the column. The protein eluted at greater than 90% purity. […]"}},
  "data": [
    {"smiles": "O=C(O)c1ccccc1-c1c2ccc(=O)c([As]3SCCS3)c-2oc2c([As]3SCCS3)c(O)ccc12", "note": "[FlAsH-EDT2]", "values": [
      {"measurement": "labeling of the CCPGCC sequence (ACP)", "setting": "[1]", "result": "equivalent labeling"},
      {"measurement": "binding/labeling of ACP", "setting": "ACP", "result": "binds to both SlyD+His tag and ACP"},
      {"measurement": "labeling of SlyD-trunc171 (only a vicinal pair of cysteines)", "setting": "SlyD-trunc171", "result": "only two cysteines are required for biarsenical labeling"},
      {"measurement": "labeling of SlyD+His tag", "setting": "SlyD+His tag", "result": "identical labeling"},
      {"measurement": "labeling of SlyD-C167A/C168A", "setting": "SlyD-C167A/C168A", "result": "identical labeling"},
      {"measurement": "labeling of the CCGGKGNGGCGC sequence (AcpS+4Cys)", "setting": "[2]", "result": "equivalent labeling"},
      {"measurement": "binding/labeling of SlyD+His tag", "setting": "[3]", "result": "binds to both SlyD+His tag and ACP"}
    ]}
  ]
}
